US20260240794A1 (priority 2023, published 2026)
Like-named read-outs stand apart in the source and are kept apart here.

How the values were obtained:
β2-adrenergic receptor = target: T1, β2-adrenergic receptor (Mus musculus, UniProt P18762); experiment: β-adrenergic receptor density by radioligand binding (ICYP) in lung membranes of treated asthmatic mice; settings: for Kd: KD of radioligand ICYP in lung membranes, not of the drug, read-out: Apparent KD (in parentheses) (converted); for Bmax (receptor density): lung membranes
T1 construct: rows headed: Apparent KD (in parentheses); other: 15 Minutes of drug treatment; KD of radioligand ICYP in lung membranes, not of the; Bmax (receptor density); lung membranes; Apparent KD (in parentheses); other: 28 Days of drug treatment; KD of radioligand ICYP in lung membranes, not of the dr
T1 sequence (P18762 whole entry): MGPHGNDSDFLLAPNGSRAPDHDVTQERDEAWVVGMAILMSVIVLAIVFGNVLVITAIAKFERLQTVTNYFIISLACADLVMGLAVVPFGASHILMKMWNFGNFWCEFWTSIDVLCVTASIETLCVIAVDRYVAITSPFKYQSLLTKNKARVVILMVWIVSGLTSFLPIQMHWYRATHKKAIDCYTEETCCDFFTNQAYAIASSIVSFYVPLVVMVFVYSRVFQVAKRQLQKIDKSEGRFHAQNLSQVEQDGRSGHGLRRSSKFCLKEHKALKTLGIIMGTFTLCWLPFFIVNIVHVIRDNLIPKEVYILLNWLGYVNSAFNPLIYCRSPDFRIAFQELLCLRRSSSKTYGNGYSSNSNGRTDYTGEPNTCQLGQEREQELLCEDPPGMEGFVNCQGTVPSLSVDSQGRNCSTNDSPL

mucous metaplasia = experiment: Mucous metaplasia in sensitized/challenged mice (photomicrographs); type: in vivo; settings: sensitized/challenged mice after treatment
Text: FIG. 9 is a photomicrograph showing the occurrence of a mucus plug in the bronchus of a child with fatal asthma.

β-arrestin pathway = experiment: Block of the β-arrestin pathway; settings: FIG. 13
[1] = Pharmacokinetics of inhaled and oral airway drugs (literature); type: in vivo, humans; settings: 6 children with asthma versus 11 healthy adults
[2] = cited from earlier work
[3] = test system: asthmatic mice (ovalbumin-sensitized and ovalbumin-challenged); type: in vivo, Balb/cJ mice; settings: chronic treatment 7 days, 20 mg/kg (metoprolol 3x daily s.c., timolol in chow), versus historical controls
cAMP accumulation = experiment: cAMP accumulation
mucin 5AC = experiment: Level of mucin 5AC in smokers, nadolol versus placebo; type: in vivo, human; settings: P<0.05
Phospholipase C (PLC-β1) = experiment: Ratio of phospholipase C to actin by immunoblotting in cultured tracheal smooth muscle cells; type: cell-based; settings: cells from asthmatic mice, chronic nadolol high dose treatment
Text: Cultured tracheal smooth muscle cells were obtained from mice exposed to the following treatments: NS/NC=nonasthmatic, non-challenged mice; S/C=asthmatic mice; Sal.Ac=asthmatic mice, acute salbutamol treatment; Sal.Ch=asthmatic mice, chronic salbutamol treatment; Nad.Ac=asthmatic mice, acute nadolol high dose treatment; and Nad.Ch=asthmatic mice, chronic nadolol high dose treatment.
After airway function experiments, the tracheas were surgically removed from anesthetized mice that had been treated with drugs or vehicle. The tracheas were minced and the cells plated and grown in culture. The smooth muscle cells grow faster and take over the culture dish. The cells were grown in medium which contained the drugs used in the treatment or vehicle controls. Phospholipase C (PLC-(β1) was determined by immunoblotting with an antibody specific for the enzyme. Actin was used as a loading control and the amount of PLC-β1 was expressed as a ratio of phospholipase C to actin.

[4] = cited from earlier work; remark: listed apart in the source

Row | Compound | Kd (β2-adrenergic receptor; 15 Minutes of drug treatment) | Kd (β2-adrenergic receptor; 28 Days of drug treatment) | Bmax (receptor density) (β2-adrenergic receptor; 28 Days of drug treatment) | block of the β-arrestin pathway (β-arrestin pathway) | other results
1 | C=CCc1ccccc1OCC(O)CNC(C)C (stereo not drawn) [alprenolol] | 454 pM | 291 pM | 179.2 ± 53.05 femtomoles of sites per milligram of protein | did not block the β-arrestin pathway | mucous metaplasia (mucous metaplasia): no improvement in mucous metaplasia
2 | CCCC1O[C@@H]2C[C@H]3[C@@H]4CCC5=CC(=O)C=C[C@]5(C)[C@H]4[C@@H](O)C[C@]3(C)[C@]2(C(=O)CO)O1 (stereo partly drawn) [budesonide] | – | – | – | – | plasma clearance of the two enantiomers per kilogram of bodyweight, excess in children over adults [1]: about 50%; elimination half-life ([2]; in vivo): 2.8 ± 1.1 h; plasma clearance ([2]; in vivo): 84 ± 27 L/h
3 | COc1ccccc1OCCNCC(O)COc1cccc2[nH]c3ccccc3c12 (stereo not drawn) [carvedilol] | 565 pM | 1440 pM | 904.1 ± 43.46 femtomoles of sites per milligram of protein | did not block the β-arrestin pathway | –
4 | COCCc1ccc(OCC(O)CNC(C)C)cc1 (stereo not drawn) [metoprolol] | – | – | – | – | airway hyperresponsiveness (Raw) [3]: effective in reducing airway hyperresponsiveness
5 | CC(C)(C)NCC(O)COc1cccc2c1CC(O)C(O)C2 (stereo not drawn) [nadolol] | 695 pM | 1590 pM | 785.5 ± 154.8 femtomoles of sites per milligram of protein | blocks this pathway | cAMP accumulation (cAMP accumulation): not associated with cAMP accumulation; level of mucin 5AC (mucin 5AC): reduces the accumulation of the mucus-associated protein mucin 5AC; mucous metaplasia (mucous metaplasia): nearly complete elimination of mucous metaplasia; ratio of phospholipase C (PLC-β1) to actin (Phospholipase C (PLC-β1)): significantly decreases the activity of phospholipase C; lipid solubility [4]: low lipid solubility
6 | CC(C)NCC(O)COc1cccc2ccccc12 (stereo not drawn) [propranolol] | – | – | – | did not block the β-arrestin pathway | –
7 | CC(C)(C)NCC(O)c1ccc(O)c(CO)c1 (stereo not drawn) [salbutamol] | – | – | 97.0 ± 23.02 femtomoles of sites per milligram of protein | – | –
8 | CC(C)(C)NCC(O)c1cc(O)cc(O)c1 (stereo not drawn) [terbutaline] | – | – | – | – | bioavailability with the oral component (swallowed fraction of the dose) added ([2]; from an MDI): 16.5%; mean pulmonary bioavailability ([2]; from an MDI): 9.1%
9 | CC(C)(C)NC[C@H](O)COc1nsnc1N1CCOCC1 [timolol] | – | – | – | – | airway hyperresponsiveness (Raw) [3]: effective in reducing airway hyperresponsiveness
